Drawing on US9975888B2, “Aryl linked imidazole and triazole derivatives and methods of use thereof for improving the pharmacokinetics of a drug” (MERCK SHARP & DOHME CORP., priority 2013, dated 2018), this text covers IC50 for nine compounds.

Molecules are shown by their SMILES.

Holding throughout (format): biochemical
In assay [1] the target is T1, CYP1A2 (Homo sapiens, UniProt P05177).
T1 construct: 0.1 mg/mL protein human liver microsomes (BD Gentest); tissue BD Gentest; host or cells: human liver microsomes
T1 sequence (P05177 1-516): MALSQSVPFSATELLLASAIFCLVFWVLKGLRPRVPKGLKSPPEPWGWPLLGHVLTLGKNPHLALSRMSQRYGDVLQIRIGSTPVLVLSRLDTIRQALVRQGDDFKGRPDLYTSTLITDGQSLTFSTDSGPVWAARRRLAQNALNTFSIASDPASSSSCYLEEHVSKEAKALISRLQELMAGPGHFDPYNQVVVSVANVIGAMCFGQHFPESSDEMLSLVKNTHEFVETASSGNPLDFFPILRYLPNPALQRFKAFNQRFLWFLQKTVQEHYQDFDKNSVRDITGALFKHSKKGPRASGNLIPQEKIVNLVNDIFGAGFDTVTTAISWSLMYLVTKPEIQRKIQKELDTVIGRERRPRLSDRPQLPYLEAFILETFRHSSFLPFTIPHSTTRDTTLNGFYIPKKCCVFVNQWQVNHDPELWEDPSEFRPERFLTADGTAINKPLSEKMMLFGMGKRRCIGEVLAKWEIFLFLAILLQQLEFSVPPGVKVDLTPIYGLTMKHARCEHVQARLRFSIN
Briefly: Cocktail assay for CYPs, phenacetin O-deethylation (CYP1A2), human liver microsomes. The conditions noted are these: 10 μM phenacetin, 0.1 mg/mL human liver microsomes, 10 min at 37° C.; read-out: CYP IC50 (nM) 1A2. The procedure: (§1) Determination of IC50 in a Cocktail Assay for CYPs 1A2, 2C9, 2C19, 2D6 and 3A4:
(§2) This assay was performed in a standard 96-well plate design. IC50 values were calculated from the percent inhibition observed for each test compound at 6 concentrations (for example, 0.0032, 0.016, 0.08, 0.4, 2 and 10 μM). The incubation substrate mix contains 10 μM phenacetin (1A2), 5 μM diclofenac (2C9), 30 μM mephenytoin (2C19), 5 μM dextromethorphan (2D6) and 2 μM midazolam (3A4), 0.1 mg/mL protein human liver microsomes (BD Gentest), 1 mM NAPDH, 3.3 mM MgCl2 and 100 mM potassium phosphate buffer (pH 7.4). The production of the metabolite of each probe substrate was determined after incubation for 10 min at 37° C. Quantitation of the metabolite peak area ratio against an internal standard (tolbutamide) was determined by LC/MS/MS analysis following acetonitrile treatment of the incubations.
(§3) Samples were analyzed in the MRM mode with a SCIEX API-4000 mass spectrometer (Applied Biosystems, Foster City, Calif.), with a Shimadzu LC-20 AD pump (Shimadzu corporation, Kyoto, JP) and a CTC PAL autosampler (Agilent Technologies, Switzerland). A Phenomenex, Luna, […], 100 A, 2.00×30 mm HPLC column was used for the separation. The mobile phases were: (A) 0.1% formic acid in water and (B) 0.1% formic acid in acetonitrile. The binary gradient was as follows.
(§4) The peak area ratio of the analyte to the internal standard was used to quantify the metabolite. The values of peak area ratios in the presence of test compound were compared to those of maximum or minimum controls and were expressed as % inhibition by interpolating between the maximum and minimum peak area ratios. Incubations with no inhibitor were defined as the maxima. The following equation was used to calculate the % inhibition: [1−[(X−Low control)/(High control−Low control)]]*100 For the IC50 calculation, SigmaPlot was used to plot the mean % inhibition versus the test compound concentrations and for non-linear regression analysis of the data. Depending on the range of data points defining the inhibition curve, the data may have been fit to the 4-parameter logistic equation.
A general note: Microsomes from liver hold many membrane-bound enzymes, among them those of drug oxidation.

For assay [2], the target named is T2, CYP2C9 (Homo sapiens, UniProt P11712).
T2 construct: 0.1 mg/mL protein human liver microsomes (BD Gentest); tissue BD Gentest; host or cells: human liver microsomes
Put plainly: Cocktail assay for CYPs, diclofenac 4′-hydroxylation (CYP2C9), human liver microsomes. The following applies: 5 μM diclofenac, 0.1 mg/mL human liver microsomes, 10 min at 37° C.; read-out: CYP IC50 (nM) 2C9. The procedure:
as §1
as §2, with “IC50 values were calculated from the percent inhibition observed for each test compound at 6 concentrations (for example, 0.0032, 0.016, 0.08, 0.4, 2 and 10 μM).” left out
as §3, §4

The target in assay [3] is T3, CYP3A4 (Homo sapiens, UniProt P08684). Briefly: Cocktail assay for CYPs, midazolam 1′-hydroxylation (CYP3A4), human liver microsomes. The conditions noted are these: 2 μM midazolam, 0.1 mg/mL human liver microsomes, 10 min at 37° C.; read-out: CYP IC50 (nM) 3A4 (MDZ). The arrangement: 0.1 mg/mL protein human liver microsomes (BD Gentest); tissue BD Gentest; host or cells: human liver microsomes. The procedure:
as §1, §2, §3, §4
Target sequence in this assay (P08684 whole entry): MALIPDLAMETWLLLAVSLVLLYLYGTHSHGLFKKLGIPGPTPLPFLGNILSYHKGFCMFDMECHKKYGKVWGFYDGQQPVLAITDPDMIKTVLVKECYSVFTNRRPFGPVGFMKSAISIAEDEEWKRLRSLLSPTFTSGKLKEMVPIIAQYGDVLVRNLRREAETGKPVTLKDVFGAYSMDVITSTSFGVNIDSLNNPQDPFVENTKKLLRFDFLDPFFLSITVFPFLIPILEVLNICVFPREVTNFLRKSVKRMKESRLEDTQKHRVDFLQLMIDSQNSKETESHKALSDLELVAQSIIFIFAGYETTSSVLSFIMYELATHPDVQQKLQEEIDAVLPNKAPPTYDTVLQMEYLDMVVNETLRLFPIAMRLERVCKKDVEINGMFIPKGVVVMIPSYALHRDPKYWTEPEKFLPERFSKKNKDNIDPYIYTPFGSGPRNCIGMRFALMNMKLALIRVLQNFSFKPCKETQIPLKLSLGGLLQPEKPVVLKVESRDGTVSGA

Assay [4] deals with T3, CYP3A4. Put plainly: IC50 vs CYP3A by inhibition of lopinavir metabolism in human liver microsomes. Further details: 0.01 mg/mL protein human liver microsomes (BD Gentest); tissue BD Gentest; host or cells: human liver microsomes. The following applies: 1.5 μM lopinavir, 0.01 mg/mL human liver microsomes, 8 min at 37° C.; read-out: CYP IC50 (nM) 3A4 (LPV). The procedure: Determination of IC50 vs CYP3A by Measurement of Inhibition of Lopinavir Metabolism
This assay was performed in a standard 96-well plate design. IC50 values were calculated from the percent inhibition observed for each test compound at 6 concentrations (for example, 0.098, 0.391, 1.56, 6.25, 25 and 100 nM). The incubation substrate mix contains 1.5 μM lopinavir, 0.01 mg/mL protein human liver microsomes (BD Gentest), 1 mM NAPDH, 3.3 mM MgCl2 and 100 mM potassium phosphate buffer (pH 7.4). The production of the sum of three hydroxylated metabolites (M2: 6-hydroxy lopinavir, M3: 4-hydroxy lopinavir, M4: 4-hydroxy lopinavir (epimer of M3), Kumar et al., 1999) was determined after incubation for 8 min at 37° C. Quantitation of the metabolite peak area ratio against an internal standard (tolbutamide) was determined by LC/MS/MS analysis following acetonitrile treatment of the incubations.
Samples were analyzed in the MRM mode with a SCIEX API-4000 mass spectrometer (Applied Biosystems, Foster City, Calif.), with a Shimadzu LC-20 AD pump (Shimadzu corporation, Kyoto, JP) and a CTC PAL autosampler (Agilent Technologies, Switzerland). A Phenomenex, Luna, 5 μm, 100 A, 2.00×30 mm HPLC column was used for the separation. The mobile phases were: (A) 0.1% formic acid in water and (B) 0.1% formic acid in acetonitrile. The binary gradient was as follows.
The peak area ratio of the analyte to the internal standard was used to quantify the metabolite. The values of peak area ratios in the presence of test compound were compared to those of maximum or minimum controls and were expressed as % inhibition by interpolating between the maximum and minimum peak area ratios. Incubations with no inhibitor were defined as the maxima and with 5 μM ketoconazole were defined as the minima.
The following equation was used to calculate the % inhibition: [1−[(X−Low control)/(High control−Low control)]]*100
For the IC50 calculation, SigmaPlot was used to plot the mean % inhibition versus the test compound concentrations and for non-linear regression analysis of the data. Depending on the range of data points defining the inhibition curve, the data may have been fit to the 4-parameter logistic equation.
Target sequence in this assay (P08684 2-503): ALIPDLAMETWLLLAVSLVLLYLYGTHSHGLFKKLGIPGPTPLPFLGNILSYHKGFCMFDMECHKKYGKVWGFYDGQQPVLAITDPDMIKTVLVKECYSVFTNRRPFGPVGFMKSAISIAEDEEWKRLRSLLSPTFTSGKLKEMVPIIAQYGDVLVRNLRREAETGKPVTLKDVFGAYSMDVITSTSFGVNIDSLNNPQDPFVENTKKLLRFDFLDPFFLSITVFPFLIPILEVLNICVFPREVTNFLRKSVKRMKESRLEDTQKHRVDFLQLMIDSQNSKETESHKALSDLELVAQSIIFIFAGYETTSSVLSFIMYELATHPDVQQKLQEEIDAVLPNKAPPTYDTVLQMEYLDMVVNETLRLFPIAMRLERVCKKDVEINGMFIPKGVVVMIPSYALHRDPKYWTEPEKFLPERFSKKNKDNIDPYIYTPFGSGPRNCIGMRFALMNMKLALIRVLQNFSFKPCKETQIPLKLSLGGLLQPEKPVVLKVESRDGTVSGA

Assay [5] addresses T4, CYP2C19 (Homo sapiens, UniProt P33261).
T4 construct: 0.1 mg/mL protein human liver microsomes (BD Gentest); tissue BD Gentest; host or cells: human liver microsomes
Briefly: Cocktail assay for CYPs, mephenytoin 4′-hydroxylation (CYP2C19), human liver microsomes. The conditions noted are these: 30 μM mephenytoin, 0.1 mg/mL human liver microsomes, 10 min at 37° C.; read-out: CYP IC50 (nM) 2C19. The procedure: as §1
as §2, with “IC50 values were calculated from the percent inhibition observed for each test compound at 6 concentrations (for example, 0.0032, 0.016, 0.08, 0.4, 2 and 10 μM).” left out
as §3, §4

Assay [6] has as its target T5, CYP2D6 (Homo sapiens, UniProt P10635).
T5 construct: 0.1 mg/mL protein human liver microsomes (BD Gentest); tissue BD Gentest; host or cells: human liver microsomes
Briefly: Cocktail assay for CYPs, dextromethorphan O-demethylation (CYP2D6), human liver microsomes. The following applies: 5 μM dextromethorphan, 0.1 mg/mL human liver microsomes, 10 min at 37° C.; read-out: CYP IC50 (nM) 2D6. The procedure:
as §1, §2, §3, §4

T2 sequence (P11712 whole entry): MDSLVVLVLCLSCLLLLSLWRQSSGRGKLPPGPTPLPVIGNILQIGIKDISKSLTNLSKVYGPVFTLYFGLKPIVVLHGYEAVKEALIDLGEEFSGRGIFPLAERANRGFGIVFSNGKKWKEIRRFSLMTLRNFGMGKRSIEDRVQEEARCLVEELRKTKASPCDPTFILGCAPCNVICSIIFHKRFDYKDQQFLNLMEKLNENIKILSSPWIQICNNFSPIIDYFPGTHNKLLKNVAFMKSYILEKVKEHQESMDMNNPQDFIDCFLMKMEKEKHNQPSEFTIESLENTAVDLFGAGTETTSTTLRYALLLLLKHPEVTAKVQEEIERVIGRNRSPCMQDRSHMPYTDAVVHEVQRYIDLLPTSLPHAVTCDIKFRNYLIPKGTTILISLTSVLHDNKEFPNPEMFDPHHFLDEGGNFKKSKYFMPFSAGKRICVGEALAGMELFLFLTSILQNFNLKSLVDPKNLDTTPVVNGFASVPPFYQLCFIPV
T4 sequence (P33261 whole entry): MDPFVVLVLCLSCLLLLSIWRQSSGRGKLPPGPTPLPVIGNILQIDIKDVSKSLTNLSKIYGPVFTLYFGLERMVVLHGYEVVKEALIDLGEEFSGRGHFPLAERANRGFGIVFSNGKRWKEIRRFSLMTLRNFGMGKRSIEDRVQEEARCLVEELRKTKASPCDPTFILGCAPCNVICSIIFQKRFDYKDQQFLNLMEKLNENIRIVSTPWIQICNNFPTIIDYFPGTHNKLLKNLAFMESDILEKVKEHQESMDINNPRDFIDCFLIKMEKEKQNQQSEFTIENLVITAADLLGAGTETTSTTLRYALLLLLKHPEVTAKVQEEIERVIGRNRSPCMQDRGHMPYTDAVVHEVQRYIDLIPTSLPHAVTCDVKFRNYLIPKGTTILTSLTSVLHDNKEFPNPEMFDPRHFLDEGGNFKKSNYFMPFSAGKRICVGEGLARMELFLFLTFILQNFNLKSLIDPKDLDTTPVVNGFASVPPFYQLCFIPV
T5 sequence (P10635 whole entry): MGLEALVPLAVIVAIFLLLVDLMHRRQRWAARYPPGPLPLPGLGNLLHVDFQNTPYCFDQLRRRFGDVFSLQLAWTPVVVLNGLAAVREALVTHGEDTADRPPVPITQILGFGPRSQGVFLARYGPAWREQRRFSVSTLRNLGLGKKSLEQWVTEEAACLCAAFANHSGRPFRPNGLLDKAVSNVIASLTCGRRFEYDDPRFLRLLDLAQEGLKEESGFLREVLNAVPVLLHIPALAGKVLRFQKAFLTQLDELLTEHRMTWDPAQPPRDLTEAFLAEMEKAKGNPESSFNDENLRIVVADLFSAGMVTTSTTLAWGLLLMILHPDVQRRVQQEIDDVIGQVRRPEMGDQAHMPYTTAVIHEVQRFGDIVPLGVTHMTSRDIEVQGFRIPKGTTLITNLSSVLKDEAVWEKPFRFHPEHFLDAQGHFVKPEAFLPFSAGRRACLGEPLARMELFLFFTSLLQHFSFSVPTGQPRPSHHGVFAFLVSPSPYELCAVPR

As for `O=S(=O)(c1cnc(N2CCN3C[C@H](O)C[C@H]3C2)s1)N1CCc2cccc(-c3cncn3CCc3ccc(F)cc3)c2C1` [Compound 65, (7R,8aS)-2-(5-((8-(1-(4-fluorophenethyl)-1H-imidazol-5-yl)-3,4-dihydroisoquinolin-2(1H)-yl)sulfonyl)thiazol-2-yl)octahydropyrrolo[1,2-a]pyrazin-7-ol], the IC50 – broadly, the point on the concentration scale where inhibition reaches its midpoint – in assay [1] is over 10000 nM; in assay [2] it was 1260 nM; in assay [3], 18.5 nM; in assay [4], 8.9 nM; in assay [5], 9230 nM; in assay [6], 4900 nM.
As for `O=C(c1cccnc1)N1CCCC1c1ccccc1-c1cncn1CCc1ccc(F)cc1` (single isomer, unassigned) [Compound 42b, (R or S)-(2-(2-(1-(4-fluorophenethyl)-1H-imidazol-5-yl)phenyl)pyrrolidin-1-yl) (pyridin-3-yl) methanone], the IC50 was over 10000 nM in assay [1]; over 10000 nM in assay [2]; 13.1 nM in assay [3]; 9.3 nM in assay [4]; over 10000 nM in assay [5]; over 10000 nM in assay [6].
On to `O=C(c1cccnc1)N1CCCC1c1cccc(-c2cncn2CCc2ccc(F)cc2)c1` (single isomer, unassigned) [Compound 48b, (R or S)-(2-(3-(1-(4-fluorophenethyl)-1H-imidazol-5-yl)phenyl)pyrrolidin-1-yl) (pyridin-3-yl) methanone], for which the IC50 is over 10000 nM in assay [1]; 9840 nM in assay [2]; 41.2 nM in assay [3]; over 100 nM in assay [4]; 4800 nM in assay [5]; 3880 nM in assay [6].
Consider `O=S(=O)(c1cnc(N2CCN3C[C@H](O)C[C@H]3C2)s1)N1CCc2c(cccc2-c2cncn2CCc2ccc(F)cc2)C1` [Compound 64, (7R,8aS)-2-(5-((5-(1-(4-fluorophenethyl)-1H-imidazol-5-yl)-3,4-dihydroisoquinolin-2(1H)-yl)sulfonyl)thiazol-2-yl)octahydro-pyrrolo[1,2-a] pyrazin-7-ol], for which the IC50 in assay [1] is over 10000 nM; in assay [2], 3550 nM; in assay [3], 4.7 nM; in assay [4], 1.6 nM; in assay [5] it was 4230 nM; in assay [6] it was 3130 nM.
Turning to `COc1ccc(OC)c(S(=O)(=O)N2CCCC2c2ccccc2-c2cncn2CCc2ccc(F)cc2)c1` (stereo not shown) [Compound 27, 5-(2-(1-((2,5-dimethoxyphenyl)sulfonyl)pyrrolidin-2-yl)phenyl)-1-(4-fluorophenethyl)-1H-imidazole], the IC50 is 2650 nM in assay [1]; 1910 nM in assay [2]; 36.1 nM in assay [3]; 41 nM in assay [4]; 3800 nM in assay [5]; 3480 nM in assay [6].
In the case of `O=C(Oc1ccc(Cl)cc1)N1CCCC1c1ccccc1-c1cncn1CCc1ccc(F)cc1` (stereo not shown) [Compound 36, 4-chlorophenyl 2-(2-(1-(4-fluorophenethyl)-1H-imidazol-5-yl)phenyl) pyrrolidine-1-carboxylate], the IC50 in assay [1] was determined as 7690 nM; in assay [2] it was 1900 nM; in assay [3] it was 19.4 nM; in assay [4], 7 nM; in assay [5], 1680 nM; in assay [6] it was 3700 nM.
In the case of `CN1CCCC1c1ccccc1-c1cncn1CCc1ccc(F)cc1` (single isomer, unassigned) [Compound 45a, (R or S)-1-(4-fluorophenethyl)-5-(2-(1-methylpyrrolidin-2-yl)phenyl)-1H-imidazole], the IC50 is over 10000 nM in assay [1]; over 10000 nM in assay [2]; 14.3 nM in assay [3]; 7790 nM in assay [5]; 4220 nM in assay [6].
With `CC(C)NC(=O)N1CCCC1c1ccccc1-c1cncn1CCc1ccc(F)cc1` (single isomer, unassigned) [Compound 46a, (R or S)-2-(2-(1-(4-fluorophenethyl)-1H-imidazol-5-yl)phenyl)-N-isopropyl-pyrrolidine-1-carboxamide], the IC50 in assay [1] is over 10000 nM; in assay [2], over 10000 nM; in assay [3], 58.5 nM; in assay [4], 45.3 nM; in assay [5], over 10000 nM; in assay [6], over 10000 nM.
On to `CN1CCCC1c1ccccc1-c1cncn1CCc1ccc(F)cc1` (single isomer, unassigned) [Compound 45b, (R or S)-1-(4-fluorophenethyl)-5-(2-(1-methylpyrrolidin-2-yl)phenyl)-1H-imidazole], for which the IC50 in assay [1] was over 10000 nM; in assay [2], over 10000 nM; in assay [3], 22.8 nM; in assay [5], over 10000 nM; in assay [6], 2480 nM.
